Legend:
[1] = test system: SHSY5Y; assay: Neurite outgrowth: microscopy and MAP2 gene expression (qPCR); type: cell-based, human; details: for neurite outgrowth / neuron-like phenotype: undifferentiated SHSY-5Y cells, 10% bacteria supernatant, 200 uM hexanoic acid or 200 uM valproic acid, 17 hrs
Protocol: SHSY5Y were plated in 10 cm petri dishes a density of 2×10^6 cells. After 24 h cells were treated in differentiation medium (growth medium containing 1% FBS without RA) with 10% bacteria supernatants or YCFA+, 10 uM RA, 200 uM hexanoic acid or 200 uM valproic acid, for 17 hrs. There after representative images were taken using phase contrast EVOS XL core microscope at 40×/0.65 magnification. Cells were collected, and total RNA was isolated according to RNeasy mini kit protocol (Qiagen). cDNAs were made using the high capacity cDNA reverse transcription kit (Applied Biosystems). Gene expression was measured using qPCR. GAPDH was used as internal control. Fold change was calculated according to the 2^(−ΔΔct) method.
Cells were seeded onto 8 well chamber slides (Marienfeld Laboratory Glassware) at 5×10^4 cells/well overnight and were treated with 10% bacterial supernatant for 24 hrs. For differentiation, cells were treated with 10 nM Retinoic acid for 5 days before treating with bacterial supernatant. Cells were then fixed with 4% paraformaldehyde in PBS for 20 minutes at room temperature (RT). Fixed cells were washed with PBS, and permeabilized with 1% Triton X-100 in PBS for 10 minutes. After washing with PBS, the slides were incubated with blocking buffer (4% BSA/PBS) for 1 hr at RT before adding anti-MAP2 antibody (sc-74421, Santa Cruz Biotechnology Inc) diluted in 1% BSA/PBS for 12 hr at 4° C. They were then washed twice with PBS, followed by incubation with Alexa Flour 488 conjugated anti-mouse (Molecular Probes Inc) and Alexa Flour 594 conjugated Phalloidin (ab 176757, Abcam) for 1 hr at RT. After washing 3× with PBS, the slides were mounted with Vectorshield[…] containing DAPI (Sigma, Aldrich). Slides were viewed using a Zeiss Axioscope microscope equipped with a 63×/1.2 W Korr objective and filter sets suitable for detection of the fluorochromes used. Manual exposure times for the digital acquisition of images immuno-labelled with MAP-2 were kept constant allowing comparison between different wells and treatments. Phalloidin (F-actin) and DAPI exposure times varied to suit the field of view. Randomised fields of view were acquired using a QImaging camera controlled by Image Pro Plus software. Images were saved as TIFs and opened in Adobe Photoshop CC 2015.1.2 and overlays of the MAP-2, DAPI and Phalloidion images overlaid and merged. Representative images were selected to illustrate the differences in abundance and location of the proteins examined

[2] = test system: HDAC; assay: HDAC inhibition on whole HT-29 cells and HT-29 cell lysate; type: cell-based; details: for total HDAC activity, pure substances: HT-29, whole cells or lysate not told apart in the sentence
Protocol: Bacterial culture and cell-free supernatant collection Pure cultures of bacteria were grown anaerobically in YCFA broth until they reached their stationary growth phase. Cultures were centrifuged at 5,000×g for 5 minutes and the cell-free supernatant (CFS) was filtered using a 0.2 μM filter (Millipore, UK). 1 mL aliquots of the CFS were stored at −80° C. until use. Sodium butyrate, hexanoic and valeric acid were obtained from Sigma Aldrich (UK) and suspensions were prepared in YCFA broth.
To investigate which metabolites were responsible for the strain-induced HDAC inhibition, different concentrations of hexanoic acid, valeric acid and sodium butyrate were measured for their HDAC inhibition on whole HT-29 cells and on HT-29 cell lysate.

[3] = test system: SH-SY5Y neuroblastoma cells; assay: Neuroprotection / cell viability of neuroblastoma cells treated with MPP (CCK-8); type: cell-based, human; details: for protection compared to YCFA-MPP+ treated sample: RA-differentiated SHSY-5Y cells treated with MPP+
Protocol: Once grown the SH-SY5Y neuroblastoma cells were plated on 96-well plate at 11,000 cells/well and incubated for 2 days. The cells were then transferred to differentiation medium (which contains FBS at 1%) and 10 uM retinoic acid (Sigma Aldrich, cat. n. R2625-100MG). Differentiation medium was replaced every other day and cells were harvested at 7 day of differentiation. Cells were pre-treated with or without MPP (Sigma Aldrich, cat. n. D048-1G) for 8 hours. Subsequently, cells were treated with 10% bacterial supernatant and incubated overnight. Cell viability was measured by using CCK-8 reagent (Sigma Aldrich, Cell Counting Kit-8, cat. n. 96992-3000TESTS-F) and read at 450 nm wavelength.

[4] = test system: mouse Splenocytes; assay: Spleen cytokine assay ex vivo (LPS or ConA stimulation); type: in vivo
Protocol: Spleens were collected immediately in 5 mL RPMI media following sacrifice and cultured immediately. Spleen cells were first homogenised in this RPMI media, followed by 5 mins incubation with 1 ml of RBC lysis buffer (11814389001 ROCHE, Sigma). A further 10 ml of RPMI media was added, followed by 200G centrifugation for 5 mins. The supernatant was then filtered through 40 um strainer. Cells were counted and seeded (4,000,000/mL media). After 2.5 h of adaptation, cells were stimulated with lipopolysaccharide (LPS-2 μg/ml) or concanavalin A (ConA-2.5 μg/ml) for 24 h. Following stimulation, the supernatants were harvested to assess the cytokine release using Proinflammatory Panel 1 (mouse) V-PLEX Kit (Meso Scale Discovery, Maryland, USA) for TNFα, IL-10, IL-1β, Interferon γ, CXCL2 and IL6. The analyses were performed using MESO QuickPlex SQ 120, SECTOR Imager 2400, SECTOR Imager 6000, SECTOR S 600.
The ex-vivo splenocyte assay involves challenging the splenocytes (cells isolated from the spleen—a main organ involved in immune defense), with a bacterio- or viral-mimetic challenge.

[5] = test system: BALBc mice; assay: Monoamine analysis in brainstem of mice fed with bacteria (HPLC); type: in vivo, mouse; details: 1×10^9 CFU oral gavage 6 days
Protocol: Neurotransmitter concentration was analysed by HPLC on samples from the brainstem. Briefly, brainstem tissue was sonicated in 500 μl of chilled mobile phase spiked with 4 ng/40 μl of N-Methyl 5-HT (Sigma Chemical Co., UK) as internal standard. The mobile phase contained 0.1 M citric acid, 5.6 mM octane-1-sulphonic acid (Sigma), 0.1 M sodium dihydrogen phosphate, 0.01 mM EDTA (Alkem/Reagecon, Cork) and 9% (v/v) methanol (Alkem/Reagecon) and was adjusted to pH 2.8 using 4 N sodium hydroxide (Alkem/Reagecon). Homogenates were then centrifuged for 15 min at 22,000×g at 4° C. and 40 μl of the supernatant injected onto the HPLC system which consisted of a SCL 10-Avp system controller, LECD 6A electrochemical detector (Shimadzu), a LC-10AS pump, a CTO-10A oven, a SIL-10A autoinjector (with sample cooler maintained at 40 C) and an online Gastorr Degasser (ISS, UK). A reverse-phase column (Kinetex 2.6 u C18 100×4.6 mm, Phenomenex) maintained at 30° C. was employed in the separation (Flow rate 0.9 ml/min). The glassy carbon working electrode combined with an Ag/AgCl reference electrode (Shimdazu) operated a +0.8 V and the chromatograms generated were analyzed using Class-VP 5 software (Shimadzu). The neurotransmitters were identified by their characteristic retention times as determined by standard injections, which run at regular intervals during the sample analysis. The ratios of peak heights of analyte versus internal standard were measured and compared with standard injection. Results were expressed as ng of neurotransmitter per g fresh weight of tissue.

[6] = test system: HT29-mtx epithelial, mucin-producing cell monolayers; assay: IL-8 secretion of HT29-mtx monolayers; type: cell-based; details: bacterial supernatants 24 h; compared to untreated and YCFA-treated cells
Excerpt: HT29-mtx epithelial, mucin-producing cell monolayers were used as an in vitro model to evaluate gut barrier disruption and immune stimulation following treatment with MRx0005 and MRx0029.

[7] = test system: BALBc mice; assay: Ex vivo gene expression in colon and ileum of mice fed with bacteria; design: species or system mouse
Protocol: Animals were allowed to habituate to their holding room for one week after arrival into the animal unit. They receive oral gavage (200 μL dose) of live biotherapeutics at a dose of 1×10^9 CFU for 6 consecutive days between 15:00 and 17:00. On day 7, the animals are decapitated, and tissues are harvested for experimentation. The in vitro results were compared with data from the ex vivo parallel analysis on the gut of mice fed with […] expression of TJP2 and occludin was quantified in the colon and ileum. […] Total RNA was extracted using the mirVanaTM miRNA Isolation kit (Ambion/Llife technologies, Paisley, UK) and DNase treated (Turbo DNA-free, Ambion/life technologies) according to the manufacturers recommendations. RNA was quantified using NanoDropTM spectrophotometer (Thermo Fisher Scientific Inc., Wilmington, Del., USA) according to the manufacturer's instructions. RNA quality was assessed using the Agilent Bioanalyzer (Agilent, Stockport, UK) according to the manufacturer's procedure and an RNA integrity number (RIN) was calculated. […] RNA was reverse transcribed to cDNA using the Applied Biosystems High Capacity cDNA kit (Applied Biosystems, Warrington, UK) according to manufacturer's instructions. Briefly, Multiscribe Reverse Transcriptase (50 U/μL) (1)(2)(1)(10) was added as part of RT master mix, incubated for 25° C. for 10 min, 37° C. for 2 h, 85° C. for 5 min and stored at 4° C. Quantitative PCR was carried out using probes (6 carboxy fluorescein-FAM) designed by Applied Biosystems to mouse specific targeted genes, while using β-actin as an endogenous control. Amplification reactions contained 1 μl cDNA, 5 μl of the 2× PCR Master mix (Roche), 900 nM of each primer and were brought to a total of 10 μl by the addition of RNase-free water. All reactions were performed in triplicate using 96-well plates on the LightCycler®480 System. Thermal cycling conditions were as recommended by the manufacturer (Roche) for 55 cycles. To check for amplicon contamination, each run contained no template controls in triplicate for each probe used. Cycle threshold (Ct) values were recorded. Data was normalized using β-actin and transformed using the 2-ΔΔCT method and presented as a fold change vs. control group.

[8] = test system: HT29-mtx epithelial, mucin-producing cell monolayers; assay: mRNA expression of tight junction proteins in HT29-mtx (qRT-PCR); type: cell-based
Protocol: Total RNA was extracted using the RNeasy mini kit (Qiagen, Manchester, JUK) according to the manufacturer's instructions, and the RNA concentration determined by absorbance at 260/280 nm using a spectrophotometer (nano-Drop ND-1000; Thermo Scientific, Wilmington, Del.). For mRNA expression analysis, cDNA was prepared from total RNA using the High-Capacity cDNA reverse transcription kit (Applied Biosystems, UK) according to the manufacturer's instructions. The reverse transcription reactions were performed in a Thermo cycler (Biometra, Germany) at 25° C. for 10 min, 37° C. for 120 min, and 85° C. for 5 min, hold on at 4° C. Resulting cDNA was amplified in duplicates by the SYBR-Green PCR assay, and products were detected on QuantStudio 6 flex real-time PCR machine (Applied Biosystems, UK) using a standardised profile (initial denaturation of 95° C. for 10 minutes, followed by 40 cycles of 15 seconds of denaturation at 95° C. and 60 seconds of annealing/extension at 60/65° C., depending on the primers. A dissociation stage was added after the 40 cycles to generate a melting curve. Analysis was performed using the Applied Biosystems QuantStudio Real-Time PCR Software v1.2. The primer sequences for Actin, Villin, Occludin TJP1 and TJP2 are provided in the sequence listing.

[9] = test system: BALBc mice; assay: Gene expression in hippocampus, amygdala and prefrontal cortex (qPCR); type: in vivo, mouse
Protocol: Animals were allowed to habituate to their holding room for one week after arrival into the animal unit. They receive oral gavage (200 μL dose) of live biotherapeutics at a dose of 1×10^9 CFU for 6 consecutive days between 15:00 and 17:00. On day 7, the animals are decapitated, and tissues are harvested for experimentation.
Total RNA was extracted using the mirVana™ miRNA Isolation kit (Ambion/Llife technologies, Paisley, UK) and DNase treated (Turbo DNA-free, Ambion/life technologies) according to the manufacturers recommendations. RNA was quantified using NanoDrop™ spectrophotometer (Thermo Fisher Scientific Inc., Wilmington, Del., USA) according to the manufacturer's instructions. RNA quality was assessed using the Agilent Bioanalyzer (Agilent, Stockport, UK) according to the manufacturer's procedure and an RNA integrity number (RIN) was calculated. RNA with RIN value >7 was used for subsequent experiments. RNA was reverse transcribed to cDNA using the Applied Biosystems High Capacity cDNA kit (Applied Biosystems, Warrington, UK) according to manufacturer's instructions. Briefly, Multiscribe Reverse Transcriptase (50 U/μL) (1)(2)(1)(10) was added as part of RT master mix, incubated for 25° C. for 10 min, 37° C. for 2 h, 85° C. for 5 min and stored at 4° C. Quantitative PCR was carried out using probes (6 carboxy fluorescein-FAM) designed by Applied Biosystems to mouse specific targeted genes, while using β-actin as an endogenous control. Amplification reactions contained 1 μl cDNA, 5 μl of the 2× PCR Master mix (Roche), 900 nM of each primer and were brought to a total of 10 μl by the addition of RNase-free water. All reactions were performed in triplicate using 96-well plates on the LightCycler®480 System. Thermal cycling conditions were as recommended by the manufacturer (Roche) for 55 cycles. To check for amplicon contamination, each run contained no template controls in triplicate for each probe used. Cycle threshold (Ct) values were recorded. Data was normalized using β-actin and transformed using the 2-ΔΔCT method and presented as a fold change vs. control group.
Expression of genes for neurotransmitter receptors [serotonin receptor 1a(5-HTR1a), dopamine D1 receptor, GABA receptor subunit B1, GABAA receptor, NMDA2A (Grin2A) and NMDA2B (Grin2b) receptor], inflammatory markers [IL-1β, IL6, CD11b, TNFα and TLR4], and endocrine markers [corticosterone releasing factor (CRF), corticosterone releasing factor receptors 1 and 2 (CRFR1, CRFR2), brain-derived neurotrophin factor (BDNF), vasopressin receptor, oxytocin receptor, glucocorticoid receptor and mineralocorticoid receptor] were analysed in brain tissue from the hippocampus, amygdala and prefrontal cortex.

Molecule: CCCCCC(=O)O [hexanoic acid]
- neurite outgrowth / neuron-like phenotype [1]: enhance neurite outgrowth
- total HDAC activity, pure substances [2]: did not show significant inhibitory activity

Molecule: O=c1c(O)c(-c2ccc(O)c(O)c2)oc2cc(O)cc(O)c12 [quercetin, reference compound]
- protection compared to YCFA-MPP+ treated sample [3]: about the same

Molecule: CCCC(=O)[O-].[Na+] [sodium butyrate, reference compound]
- total HDAC activity, pure substances [2]: significant HDAC inhibition
- HDAC inhibition, HT29 cell lysate ([2]; HT-29 cell lysate): significant (P<0.05) inhibition
- HDAC inhibition, HT29 whole cell ([2]; whole HT-29 cells): significant (P<0.05) inhibition

Molecule: CCCC(CCC)C(=O)O [valproic acid, reference compound]
- neurite outgrowth / neuron-like phenotype [1]: increases neurite outgrowth
- MAP2 expression ([1]; undifferentiated neuroblastoma cells, qPCR, GAPDH internal control): increase

Molecule: Parabacteroides distasonis [MRx0005]
- interleukin-6 in splenocytes ([4]; challenge with LPS): reduced
- levels of interferon-γ in splenocytes ([4]; challenge with LPS): significantly reduced
- tumour necrosis factor in splenocytes ([4]; challenge with LPS): reduced
- levels of the chemoattractant CXCL1 ([4]; splenocytes): increase
- dopamine in brain [5]: decrease
- secretion of IL-8 [6]: even lower secretion
- IDO-1 expression ([7]; colon): increase
- expression of IDO1 ([7]; ileum): increased
- expression of Tph1 ([7]; ileum): increased
- gene expression of tight junction proteins [8]: did not alter
- proliferation of neurons ([3]; 10% bacterial supernatant, without MPP): increase
- protection compared to YCFA-MPP+ treated sample [3]: about 20%
- mitochondria metabolic activity ([3]; RA-differentiated SHSY-5Y cells, per se (no MPP+)): increase
- expression of BDNF ([9]; amygdala): significantly increased
- expression of CD11b ([9]; amygdala): increase
- expression of GABBR1 ([9]; amygdala): increased
- expression of GABRA2 ([9]; amygdala): significantly increased
- expression of Grin2a ([9]; amygdala): reduced
- expression of Grin2b ([9]; amygdala): reduced
- expression of IL-6 ([9]; amygdala): reduced
- expression of BDNF ([9]; prefrontal cortex): significant increase
